Assay results: article PMC3583349 (Pest management science, 2012)
Read-outs that look alike come from different tables or passages of the source.

Assays:
[1] = biological target: T1, CpGSTD2 (Culex pipiens, UniProt H9M8E4); assay: biochemical
T1 sequence (H9M8E4 1-214): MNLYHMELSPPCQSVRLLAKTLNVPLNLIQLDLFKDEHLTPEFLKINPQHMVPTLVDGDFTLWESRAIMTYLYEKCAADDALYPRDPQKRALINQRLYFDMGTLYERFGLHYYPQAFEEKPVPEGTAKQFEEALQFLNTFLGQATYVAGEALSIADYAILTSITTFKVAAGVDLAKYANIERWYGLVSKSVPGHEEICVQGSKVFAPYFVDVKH

[2] = biological target: T2, CpGSTD1 (Culex pipiens, UniProt H9M8E3); assay: biochemical
T2 sequence (H9M8E3 1-211): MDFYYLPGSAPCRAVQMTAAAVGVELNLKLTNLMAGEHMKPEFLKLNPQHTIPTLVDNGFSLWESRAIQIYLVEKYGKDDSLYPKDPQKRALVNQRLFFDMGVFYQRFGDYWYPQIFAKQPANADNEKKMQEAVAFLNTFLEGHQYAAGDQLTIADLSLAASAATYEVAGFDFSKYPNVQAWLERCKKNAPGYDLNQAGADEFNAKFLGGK

[3] = biological target: T1, CpGSTD2
[4] = system: AgGSTD1-6; conditions: cited from earlier work
[5] = biological target: T2, CpGSTD1; conditions: for Km: pH 6.5
[6] = system: AdGSTD1-1; conditions: cited from earlier work
[7] = biological target: T1, CpGSTD2; assay: Peroxidase activity assay with CMHP, CpGSTD2; format: biochemical; conditions: pH 7.5; conditions where a rate of at least 0.1 μmol min^−1 mg^−1 could be detected with CpGSTD1
[8] = biological target: T2, CpGSTD1; assay: Peroxidase activity assay with CMHP, CpGSTD1; format: biochemical; conditions: 0.125 to 1.0 mM CMHP, 7.5 mM reduced GSH, 25°C, pH 6.5
[9] = biological target: T2, CpGSTD1; assay: DDT dehydrochlorination assay, CpGSTD1; format: biochemical; conditions: over a period of 2 h, 1 μM DDT, 15 mM reduced GSH, 30°C, pH 6.5, HPLC
[10] = biological target: T1, CpGSTD2; remark: listed apart in the source
[11] = biological target: T2, CpGSTD1; conditions: pH 6.5
[12] = system: GST-2; conditions: cited from earlier work
[13] = system: GST-1b; conditions: cited from earlier work
[14] = biological target: T2, CpGSTD1; assay: Permethrin metabolism assay; format: biochemical; conditions: for Ratio of the area under the curve relative to lambda cyhalothrin: after 2 h incubation at 30°C with CpGSTD1, 1 μM permethrin, HPLC
[15] = biological target: T1, CpGSTD2; assay: Permethrin metabolism assay; format: biochemical; conditions: for Ratio of the area under the curve relative to lambda cyhalothrin: after 2 h incubation at 30°C with CpGSTD2, 1 μM permethrin, HPLC
[16] = substrate: O=[N+]([O-])c1ccc(Cl)c(Cl)c1; assay: purified protein, by the assay type; conditions: pH 7.5; 30.0 °C
[17] = varying substrate 7.8 to 750 μM, 5 mM reduced GSH, 30°C, pH 7.5
[18] = 2 h, 30°C, conditions where a rate of 7 pmol min^−1 mg^−1 could have been reliably detected

In the case of O=C(/C=C/c1ccc(O)cc1)c1ccccc1 [4-hydroxy chalcone, 4-hydroxychalcone], the IC50 [1] is reported as 5 ± 0.2 µM and the IC50 [2] is reported as 16 ± 1 µM.

For O=[N+]([O-])c1ccc(Cl)c([N+](=O)[O-])c1 [CDNB, 1-chloro-2,4-dinitrobenze], the kcat ([3]; 5 mM reduced GSH, 30°C, pH 7.5) was 7.0 s⁻¹, the “catalytic efficiency (kcat/KM) higher with CDNB than with DCNB” value ([3]; CpGSTD2) was “at least 100 fold” and the “turnover of CDNB faster than DCNB” value ([3]; CpGSTD2, CDNB versus DCNB) was “about 18 fold”. The Km [3, 17] was 30 ± 2 µM, the Vmax [3, 17] was 18 ± 0.2 µmol/min/mg and the “catalytic efficiency ratio (kcat/KM)” value [4] was 790000 M⁻¹ s⁻¹. For the same molecule, the “catalytic efficiency (kcat/KM) higher with CDNB than with DCNB” value ([5]; CpGSTD1) was “at least 100 fold”, the “turnover of CDNB faster than DCNB” value ([5]; CpGSTD1, CDNB versus DCNB) was “about 230 fold” and the “turnover of CDNB by CpGSTD1 faster than by CpGSTD2” value ([5]; CpGSTD1 versus CpGSTD2) was “about 3 fold”. The Km [5] was 140 ± 10 µM and the “catalytic efficiency ratio (kcat/KM)” value [6] was 48000 M⁻¹ s⁻¹.

In the case of CC(C)(OO)c1ccccc1 [CMHP, cumene hydroperoxide], the “activity towards CMHP (peroxidase activity)” value [7] is reported as “no detectable activity” and the “rate of CMHP reduction (peroxidase activity)” value [8] is reported as 1.6 µmol/min/mg.

Molecule O=[N+]([O-])c1ccc(Cl)c(Cl)c1 [DCNB, 1,2-dichloro-4-nitrobenzene] has a Km [5] of 170 ± 10 µM.

For Clc1ccc(C(c2ccc(Cl)cc2)C(Cl)(Cl)Cl)cc1 [DDT, 1,1,1-Trichloro-2,2-bis(4-chlorophenyl)ethane], the “rate of DDT metabolism to DDE” value [9] was 6.4 ± 0.6 nmol per mg protein.

For CCCCCCSC[C@H](NC(=O)CC[C@H](N)C(=O)O)C(=O)NCC(=O)O [S-hexyl glutathione, S-hexylglutathione], the IC50 [10] was 0.24 µM, the IC50 ([10]; pH 7.5) was 0.24 ± 0.01 µM and the IC50 [11] was 68 ± 3 µM.

For O=C(/C=C/c1ccccc1)c1ccccc1 [chalcone], the IC50 [1] is given as 4 ± 0.2 µM, the IC50 [12] is given as 165 µM and the IC50 [2] is given as 12.1 ± 0.4 µM. For the same molecule, the IC50 [13] was 166 µM.

With CC1(C)[C@H](C(=O)OCc2cccc(Oc3ccccc3)c2)[C@@H]1C=C(Cl)Cl [cis-permethrin] the “Ratio of the area under the curve relative to lambda cyhalothrin” value [14] was 0.47 ± 0.02 and the “Ratio of the area under the curve relative to lambda cyhalothrin” value [15] was 0.51 ± 0.03.

C=C(CC)C(=O)c1ccc(OCC(=O)O)c(Cl)c1Cl [ethacrynic acid (EA), ethacrynic acid] showed an IC50 [1] of 2.5 ± 0.1 µM.

In the case of CC1(C)C(C=C(Cl)Cl)C1C(=O)OCc1cccc(Oc2ccccc2)c1 (centres unmarked) [permethrin], the metabolism of permethrin [14, 18] is reported as “neither CpGSTD1 nor CpGSTD2 are able to metabolize” and the metabolism of permethrin [15, 18] is reported as “neither CpGSTD1 nor CpGSTD2 are able to metabolize”.

For CC1(C)[C@H](C=C(Cl)Cl)[C@H]1C(=O)OCc1cccc(Oc2ccccc2)c1 [trans-permethrin], the “Ratio of the area under the curve relative to lambda cyhalothrin” value [14] was 0.24 ± 0.01 and the “Ratio of the area under the curve relative to lambda cyhalothrin” value [15] was 0.29 ± 0.02.

B1: CpGSTD2 (Culex pipiens) (protein)
chain: MNLYHMELSPPCQSVRLLAKTLNVPLNLIQLDLFKDEHLTPEFLKINPQHMVPTLVDGDFTLWESRAIMTYLYEKCAADDALYPRDPQKRALINQRLYFDMGTLYERFGLHYYPQAFEEKPVPEGTAKQFEEALQFLNTFLGQATYVAGEALSIADYAILTSITTFKVAAGVDLAKYANIERWYGLVSKSVPGHEEICVQGSKVFAPYFVDVKH
Work on B1 yielded a Km [16] of 220 ± 10 µM, a Vmax [16] of 0.96 ± 0.02 µmol/min/mg and a kcat [16] of 0.4 s⁻¹. It also gave a kcat/Km [16] of 1700 M⁻¹ s⁻¹.
